In ChEMBL document CHEMBL4400573, “Synthesis and structure-activity relationships of pyrazine-2-carboxamide derivatives as novel echinoderm microtubule-associated protein-like 4 (EML4)-anaplastic lymphoma kinase (ALK) inhibitors” (Bioorg Med Chem, 2019):
Converted amounts (≈) assume the structure as drawn.

Assays:
[1] = Inhibition of EML4-fused ALK variant 1 (unknown origin) expressed in mouse BAF3 cells using peptide substrate measured after 1 hr by HTRF assay; assay type: cell-based, Homo sapiens
BaF3 = experiment: Antiproliferative activity against mouse BAF3 cells expressing EML4-fused ALK variant 1 assessed as reduction in cell viability measured after 2 days by alamar blue assay; assay type: functional, cell-based; settings: BaF3, 48 h
[2] = Aqueous solubility of the compound in pH 6.8 JP2 fluid measured after 20 hrs by HPLC analysis; assay type: physicochemical
NIH3T3 [3] = experiment: Antitumor activity against mouse 3T3 cells expressing EML4-fused ALK variant 1 xenografted in Balb/c nude mouse assessed as tumor growth inhibition at 10 mg/kg, po administered once daily for 5 days measured post last dose relative to control; assay type: functional; design: Activity: scale not given: the % may be the effect or the level left
[4] = Toxicity in Balb/c nude mouse xenografted with mouse 3T3 cells expressing EML4-fused ALK variant 1 assessed as effect on body weight at 10 mg/kg, po administered once daily for 5 days; assay type: organism-based; settings: in vivo, 120 h
[5] = Permeability of the compound at pH 6.5 measured after 2 hrs by PAMPA; assay type: ADME; settings: read-out: permeability
NIH3T3 [6] = experiment: Antitumor activity against mouse 3T3 cells expressing EML4-fused ALK variant 1 xenografted in Balb/c nude mouse assessed as tumor regression at 10 mg/kg, po administered once daily for 5 days measured post last dose relative to control; assay type: functional

Row | Compound | IC50 [1] | IC50 (BaF3) | other results
1 | CCc1nc(C(N)=O)c(Nc2cccc(S(C)(=O)=O)c2)nc1N[C@H]1CC[C@H](O)CC1 | 17 nM | 68 nM | solubility at 20 h [2]: 1.1 µM (≈ 0.477 µg/mL)
2 | CS(=O)(=O)c1cccc(Nc2nc(N[C@H]3CC[C@H](O)CC3)c(Br)nc2C(N)=O)c1 | 82 nM |  | 
3 | CS(=O)(=O)c1cccc(Nc2nc(N[C@H]3CC[C@H](O)CC3)c(C3CC3)nc2C(N)=O)c1 | 37 nM |  | 
4 | CCCc1nc(C(N)=O)c(Nc2cccc(S(C)(=O)=O)c2)nc1N[C@H]1CC[C@H](O)CC1 | 23 nM |  | 
5 | Cc1nc(C(N)=O)c(Nc2cccc(S(C)(=O)=O)c2)nc1N[C@H]1CC[C@H](O)CC1 | 51 nM |  | 
6 | CS(=O)(=O)c1cccc(Nc2nc(N[C@H]3CC[C@H](O)CC3)cnc2C(N)=O)c1 | 270 nM |  | 
7 | CS(=O)(=O)c1cccc(Nc2nc(N[C@H]3CC[C@H](O)CC3)c(Cl)nc2C(N)=O)c1 | 82 nM |  | 

More lines, main results first:

Row | IC50 [1] | IC50 (BaF3) | Compound | other results
8 | 8.9 nM | 85 nM | CCc1nc(C(N)=O)c(Nc2ccc(N3CCC(N4CCN(C)CC4)CC3)cc2OC)nc1N[C@H]1CC[C@H](O)CC1 | solubility at 20 h [2]: ≥ 100 µM
9 | 0.37 nM | 9.5 nM | CCc1nc(C(N)=O)c(Nc2ccc(N3CCC(N4CCN(C)CC4)CC3)c(OC)c2)nc1N[C@H]1CC[C@H](O)CC1 | solubility at 20 h [2]: ≥ 100 µM; Activity (NIH3T3 [3]): 34%; Activity [4]: Toxic; Papp at 2 h [5]: 1.1 ×10⁻⁶ cm/s
10 | 1 nM | 9.7 nM | CCc1nc(C(N)=O)c(Nc2ccc(N3CCC(N4CCN(C)CC4)CC3)c(OC)c2)nc1N[C@H]1CC[C@H](OC)CC1 | Activity (NIH3T3 [6]): 62%; Activity [4]: Toxic; Papp at 2 h [5]: 21 ×10⁻⁶ cm/s
11 | 6.6 nM | 31 nM | CCc1nc(C(N)=O)c(Nc2ccc(N3CCC(N4CCN(C)CC4)CC3)c(OC)c2)nc1N(C)CC | 
12 | 0.8 nM | 12 nM | CCc1nc(C(N)=O)c(Nc2ccc(N3CCC(N4CCN(C)CC4)CC3)c(OC)c2)nc1NC(C)C | 
13 | 2.5 nM | 16 nM | CCNc1nc(Nc2ccc(N3CCC(N4CCN(C)CC4)CC3)c(OC)c2)c(C(N)=O)nc1CC | 
14 | 13 nM | 48 nM | CCc1nc(C(N)=O)c(Nc2ccc(N3CCC(N4CCN(C)CC4)CC3)c(OC)c2)nc1N[C@@H]1CCCC[C@H]1O (racemic) | 
15 | 17 nM |  | COc1cc(N2CCC(N3CCN(C)CC3)CC2)ccc1Nc1ncnc(Nc2ccccc2S(=O)(=O)C(C)C)n1 [ASP-3026] | inhibition in vivo at 10 mg/kg (NIH3T3 [3]; Mus musculus, NIH3T3, po, 120 h, read-out: TGI): 81%; Activity [4]: Non-Toxic
